Laboratory results published in patent publication US12187699B2, “GSPT1 compounds and methods of use of the novel compounds” (BRISTOL-MYERS SQUIBB COMPANY, priority 2022, dated 2025).

Each compound was assayed against T1, ePL-tagged GSPT1 (Homo sapiens, UniProt P15170+Q96SW2) (assay: GSPT1 DiscoverX Degradation Assay). Details: DF15 multiple myeloma cells expressing ePL-tagged GSPT1; twenty hours; minimum of percent of control curve (Ataluren control Y constant=0, DMSO control = Y max).
T1 construct: expressed in transfected cells; host or cells: DF15 multiple myeloma cells
Assay type: cell-based
Protocol: GSPT1 DiscoverX Degradation Assay.
Compounds were dispensed by an acoustic dispenser (ATS Acoustic Transfer System from EDC Biosystems) into a 384-well in a 10 pt dose response curve using 3 fold dilutions starting at 10 uM and going down to 0.0005 uM in DMSO. A DMSO control is added to the assay. […] Assay plates were incubated at 37° C. with 5% CO2 for twenty hours. After incubation, 25 μl of the InCELL Hunter™ Detection Reagent Working Solution (DiscoverX, cat #96-0002, Fremont, CA) was added to each well and incubated at room temperature for 30 minutes protected from light. After 30 minutes, luminescence was read on a PHERAstar luminometer (Cary, NC).
The minimum Y is reference to the Y constant. In the GSPT1 degradation assay, we use Ataluren® (luciferase inhibitor) as the control with a Y constant=0. The maximum limit is the Y max DMSO control. All percent of control GSPT1 degradation curves were processed and evaluated using Activity Base (IDBS).

T1 sequence (P15170 whole entry): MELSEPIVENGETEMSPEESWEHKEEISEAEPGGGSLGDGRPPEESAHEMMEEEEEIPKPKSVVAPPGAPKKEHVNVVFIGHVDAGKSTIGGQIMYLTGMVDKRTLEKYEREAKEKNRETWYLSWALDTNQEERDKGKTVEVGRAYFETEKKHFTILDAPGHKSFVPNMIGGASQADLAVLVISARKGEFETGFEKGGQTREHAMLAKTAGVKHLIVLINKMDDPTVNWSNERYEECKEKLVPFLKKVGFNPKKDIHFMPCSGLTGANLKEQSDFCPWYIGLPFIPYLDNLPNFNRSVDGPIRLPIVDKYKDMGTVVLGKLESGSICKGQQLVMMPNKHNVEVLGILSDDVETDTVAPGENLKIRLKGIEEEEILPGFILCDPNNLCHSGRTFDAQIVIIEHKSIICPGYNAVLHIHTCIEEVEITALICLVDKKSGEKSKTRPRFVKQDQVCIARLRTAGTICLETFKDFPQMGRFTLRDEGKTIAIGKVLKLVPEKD
T1 sequence (Q96SW2 whole entry): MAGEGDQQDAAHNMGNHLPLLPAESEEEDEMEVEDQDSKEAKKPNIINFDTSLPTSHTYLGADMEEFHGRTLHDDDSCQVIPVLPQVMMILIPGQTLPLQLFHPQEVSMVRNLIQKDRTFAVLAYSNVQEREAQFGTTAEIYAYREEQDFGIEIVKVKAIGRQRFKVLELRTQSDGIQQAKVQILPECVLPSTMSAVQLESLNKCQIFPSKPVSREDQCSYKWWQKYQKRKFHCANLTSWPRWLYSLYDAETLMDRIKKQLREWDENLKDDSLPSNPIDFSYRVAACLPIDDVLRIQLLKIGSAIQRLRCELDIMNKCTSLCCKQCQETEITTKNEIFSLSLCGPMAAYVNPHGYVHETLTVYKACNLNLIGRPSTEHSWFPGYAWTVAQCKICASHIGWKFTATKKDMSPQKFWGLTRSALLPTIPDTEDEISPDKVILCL
T1 sequence (Q16531 whole entry partner): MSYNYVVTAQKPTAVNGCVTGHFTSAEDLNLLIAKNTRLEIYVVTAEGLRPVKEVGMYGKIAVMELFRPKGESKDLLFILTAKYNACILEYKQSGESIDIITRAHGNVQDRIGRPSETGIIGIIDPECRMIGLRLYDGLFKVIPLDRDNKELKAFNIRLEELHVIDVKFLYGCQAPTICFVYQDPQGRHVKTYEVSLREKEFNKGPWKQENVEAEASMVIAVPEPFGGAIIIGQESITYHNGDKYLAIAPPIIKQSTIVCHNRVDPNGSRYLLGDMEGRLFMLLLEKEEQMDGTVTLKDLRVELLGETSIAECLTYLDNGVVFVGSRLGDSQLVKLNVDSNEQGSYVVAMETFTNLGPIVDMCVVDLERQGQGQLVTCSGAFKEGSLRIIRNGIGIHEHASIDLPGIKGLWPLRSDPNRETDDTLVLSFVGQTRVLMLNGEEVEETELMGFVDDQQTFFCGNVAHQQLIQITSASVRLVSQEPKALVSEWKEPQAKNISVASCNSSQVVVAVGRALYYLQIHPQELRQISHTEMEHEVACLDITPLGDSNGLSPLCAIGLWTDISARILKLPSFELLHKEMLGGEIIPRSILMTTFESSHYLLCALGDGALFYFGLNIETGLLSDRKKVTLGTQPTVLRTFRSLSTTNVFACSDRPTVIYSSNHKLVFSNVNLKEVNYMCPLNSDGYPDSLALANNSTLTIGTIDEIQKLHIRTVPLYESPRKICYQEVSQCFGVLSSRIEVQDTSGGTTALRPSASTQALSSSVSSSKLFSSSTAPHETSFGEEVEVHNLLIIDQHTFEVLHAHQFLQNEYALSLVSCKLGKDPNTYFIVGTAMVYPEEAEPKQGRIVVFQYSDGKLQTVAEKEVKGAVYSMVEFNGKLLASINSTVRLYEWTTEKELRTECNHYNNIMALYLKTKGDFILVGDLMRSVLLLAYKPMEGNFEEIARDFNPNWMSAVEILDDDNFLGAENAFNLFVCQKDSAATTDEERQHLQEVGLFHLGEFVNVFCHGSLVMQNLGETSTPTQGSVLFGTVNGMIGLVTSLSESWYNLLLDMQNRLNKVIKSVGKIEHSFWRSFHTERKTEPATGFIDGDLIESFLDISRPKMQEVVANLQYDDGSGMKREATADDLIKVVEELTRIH

Compared with NCc1ccc(COc2ccc(NC(=O)NCc3ccc4c(c3)CN(C3CCC(=O)NC3=O)C4=O)nn2)cc1 (centres unmarked) [Example 19, 1-(6-{[4-(aminomethyl)phenyl]methoxy}pyridazin-3-yl)-3-{[2-(2,6-dioxopiperidin-3-yl)-1-oxo-2,3-dihydro-1H-isoindol-5-yl]methyl}urea], NCc1ccc(COc2ccc(NC(=O)NCc3ccc4c(c3)CN(C3CCC(=O)NC3=O)C4=O)cn2)cc1 (centres unmarked) [Example 20, 1-(6-{[4-(aminomethyl)phenyl]methoxy}pyridin-3-yl)-3-{[2-(2,6-dioxopiperidin-3-yl)-1-oxo-2,3-dihydro-1H-isoindol-5-yl]methyl}urea] is higher in “GSPT1 Degradation Ymin” value: 6.55 for the first, 7.50 for the second.

Going from NCc1ccc(COc2ccc(NC(=O)NCc3ccc4c(c3)CN(C3CCC(=O)NC3=O)C4=O)cc2)c(OC2COC2)c1 (centres unmarked) [Example 26, 1-(4-{[4-(aminomethyl)-2-(oxetan-3-yloxy)phenyl]methoxy}phenyl)-3-{[2-(2,6-dioxopiperidin-3-yl)-1-oxo-2,3-dihydro-1H-isoindol-5-yl]methyl}urea] to NCc1ccc(COc2ccc(NC(=O)NCc3ccc4c(c3)CN(C3CCC(=O)NC3=O)C4=O)cc2)c(C2CC2)c1 (centres unmarked) [Example 27, 1-(4-{[4-(aminomethyl)-2-cyclopropylphenyl]methoxy}phenyl)-3-{[2-(2,6-dioxopiperidin-3-yl)-1-oxo-2,3-dihydro-1H-isoindol-5-yl]methyl}urea], the “GSPT1 Degradation Ymin” value falls from 6.92 to 6.15.

First: NCc1ccc(COc2ccc(NC(=O)NCc3ccc4c(c3)CN(C3CCC(=O)NC3=O)C4=O)cc2Cl)cc1 (centres unmarked) [Example 29, 1-(4-((4-(aminomethyl)benzyl)oxy)-3-chlorophenyl)-3-((2-(2,6-dioxopiperidin-3-yl)-1-oxoisoindolin-5-yl)methyl)urea]
Second: NCc1ccc(COc2ccc(NC(=O)NCc3ccc4c(c3)CN(C3CCC(=O)NC3=O)C4=O)cc2)cc1 (centres unmarked) [Example 2, 1-[4-[[4-(aminomethyl)phenyl]methoxy]phenyl]-3-[[2-(2,6-dioxo-3-piperidyl)-1-oxo-isoindolin-5-yl]methyl]urea]
The “GSPT1 Degradation Ymin” value of the first is higher: 16.88 for the first, 4.34 for the second.

Compared with NCc1cccc(COc2ccc(NC(=O)NCc3ccc4c(c3)CN(C3CCC(=O)NC3=O)C4=O)cc2)c1 (centres unmarked) [Example 4, 1-(4-((3-(aminomethyl)benzyl)oxy)phenyl)-3-((2-(2,6-dioxopiperidin-3-yl)-1-oxoisoindolin-5-yl)methyl)urea], O=C1CCC(N2Cc3cc(CNC(=O)Nc4ccc(OCc5ccccc5O)cc4)ccc3C2=O)C(=O)N1 (centres unmarked) [Example 9, 1-((2-(2,6-dioxopiperidin-3-yl)-1-oxoisoindolin-5-yl)methyl)-3-(4-((2-hydroxybenzyl)oxy)phenyl)urea] is lower in “GSPT1 Degradation Ymin” value: 6.80 for the first, 3.50 for the second.
